The values below come from article PMC9968717, “Breakthrough: a first-in-class virtual simulator for dose optimization of ACE inhibitors in translational cardiovascular medicine” (Scientific Reports, 2023).

Structures can show the parent of a compound that is named as a salt. Bounds are passed on as bounds.

Data set [1] is described as follows: Animal safety monitoring of study dogs given oral benazepril. In kind it is in vivo. The note with it: healthy beagles; benazepril PO 0.125 mg/kg q12h, 0.25 mg/kg q12h, 0.5 mg/kg q24h (crossover). The source says: All study dogs received all oral doses of benazepril as intended. Dogs were monitored for adverse effects associated with benazepril labeling as well those associated with general animal welfare e.g., vomiting, diarrhea, inappetence, weakness/hypotension, fatigue, incoordination, hypercreatininemia.
Nine purpose-bred laboratory beagles (5 castrated males and 4 spayed females), 40–42 months old, weighing 9.0–13.5 kg were randomized based on body weight and sex into three oral dosing groups of benazepril. Systemic and cardiovascular health of all dogs was confirmed prior to the study with physical examination, routine laboratory screening (complete blood count, serum biochemical analysis), blood pressure measurement, and echocardiography.
This 35-day prospective study was divided into three periods with three different benazepril dosing groups: (A) 0.125 mg/kg q12hr PO, (B) 0.25 mg/kg q12hr PO, and (C) 0.5 mg/kg q24hr PO. All dogs received all treatments using a […] crossover (ABC/BCA/CAB) design. Dogs were sampled in the same order at each time point and exact time of sampling was recorded. […]
Venous blood samples were collected from an external jugular or cephalic vein with a 1 inch, 20-gauge or 22-gauge needle attached to a 6 mL syringe. […] Samples for complete blood counts or serum chemistry panels were analyzed by the Iowa State Clinical Pathology Laboratory.

Another data set deals with ACE activity. The note with it: dogs, cited from earlier work; for Duration of ACE suppression: single dose 0.5 mg/kg.
For data set [2] the following is noted: dog, in vivo; cited from earlier work.
Data set [3] in a line: NLME/QSP model fit of plasma benazeprilat pharmacokinetics after oral benazepril. In kind it is in vivo, dogs (beagles). The note with it: beagle, dog, population estimate, beagles, read-out: Clearance rate of benazeprilat (ClI), fixed effect (converted). The procedure: The PK portion of the base model was a conventional 2-compartment mammillary model with saturable exchange between the central and peripheral compartments. Building on this initial model, several modifications of the PK structure were evaluated. First, several standard compartment variations were tested i.e., using 1-, 2-, or 3-compartment disposition functions. Overall, a 2-compartment PK model outperformed the other candidate models based on the precision of individual parameters and overall quality of fit. Second, non-specific (low affinity, high capacity) binding of benazeprilat to plasma proteins was represented by a 3rd compartment within the central compartment, i.e., representing the free circulation of benazeprilat. The volume of the non-specific binding compartment (Vns) is a representation of the relative binding capacity of benazeprilat which is distributed in plasma but is not freely circulating or interacting with ACE. […] As is typical, quantity of benazeprilat passed between compartments is called Im, n, for inhibitor, where indexes m and n represent origin and destination compartments, respectively. […] Doses are administered in benazepril hcl, but are measured as the metabolite-benazeprilat. […] Dogs were sampled in the same order at each time point and exact time of sampling was recorded. […] The benazepril dose was calculated to the nearest 1.25 mg increment. […]

For another data set, the target named is T1, ACE (Canis lupus familiaris, UniProt A0A8I3S3I6).
T1 construct: from tissue; host or cells: living healthy beagle dogs; ACE in free circulation (plasma) and in tissue
T1 sequence (A0A8I3S3I6 31-1241): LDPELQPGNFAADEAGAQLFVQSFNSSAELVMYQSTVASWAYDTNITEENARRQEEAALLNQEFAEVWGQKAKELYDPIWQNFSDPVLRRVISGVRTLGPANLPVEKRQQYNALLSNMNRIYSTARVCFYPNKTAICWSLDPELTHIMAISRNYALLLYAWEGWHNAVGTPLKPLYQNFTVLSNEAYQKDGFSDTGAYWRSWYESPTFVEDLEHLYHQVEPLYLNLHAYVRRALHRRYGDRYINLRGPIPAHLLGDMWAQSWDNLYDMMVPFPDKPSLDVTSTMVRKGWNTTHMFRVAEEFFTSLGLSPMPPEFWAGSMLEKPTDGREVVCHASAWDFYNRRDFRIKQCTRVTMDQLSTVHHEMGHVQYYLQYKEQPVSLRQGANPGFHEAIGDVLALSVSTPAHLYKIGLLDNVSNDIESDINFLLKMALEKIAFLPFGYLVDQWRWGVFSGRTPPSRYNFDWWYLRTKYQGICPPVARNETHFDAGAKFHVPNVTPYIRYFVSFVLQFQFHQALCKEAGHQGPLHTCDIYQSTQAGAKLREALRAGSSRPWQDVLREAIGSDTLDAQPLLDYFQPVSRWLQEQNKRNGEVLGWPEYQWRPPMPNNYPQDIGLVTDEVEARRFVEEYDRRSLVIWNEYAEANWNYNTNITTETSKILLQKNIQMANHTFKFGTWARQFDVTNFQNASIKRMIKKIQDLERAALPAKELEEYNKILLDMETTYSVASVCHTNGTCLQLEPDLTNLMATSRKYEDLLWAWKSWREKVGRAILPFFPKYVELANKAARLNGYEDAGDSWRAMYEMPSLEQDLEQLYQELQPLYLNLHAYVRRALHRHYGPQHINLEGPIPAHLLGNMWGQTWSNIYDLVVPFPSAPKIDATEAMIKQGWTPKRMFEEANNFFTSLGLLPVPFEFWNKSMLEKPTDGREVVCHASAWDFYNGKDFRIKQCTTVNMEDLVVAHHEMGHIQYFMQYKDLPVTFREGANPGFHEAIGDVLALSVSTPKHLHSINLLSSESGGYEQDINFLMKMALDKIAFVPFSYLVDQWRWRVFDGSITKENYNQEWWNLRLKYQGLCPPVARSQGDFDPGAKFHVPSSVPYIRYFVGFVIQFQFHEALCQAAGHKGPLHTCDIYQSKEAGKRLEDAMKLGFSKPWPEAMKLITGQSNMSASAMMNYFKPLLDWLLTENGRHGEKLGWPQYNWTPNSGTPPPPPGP
As to the kind of experiment: Michaelis–Menten model of ACE inhibition by benazeprilat within the QSP model fit. The format is in vivo, dogs (beagles). As to conditions: population estimate, beagles. The text has this:
Benazeprilat primary mechanism of action is inhibiting ACE to prevent the catalysis of AngI into AngII. To account for this mechanism, a logistic saturation model was first implemented. […] The distribution of ACE across tissue (ts) and free circulation (fr) was also considered. The nomenclature used throughout Eq. (3) is consistent with previous descriptions of the Michaelis–Menten model[26].3 E˙fr=-k-1·Efr·Sfr+k1·ESfr-k-3·Efr·Ifr+k3·EIfr+k2·ESfrE˙Sfr=k-1·Efr·Sfr-k1·ESfr-k2·ESfrE˙Ifr=k-3·Efr·Ifr-k3·EIfrE˙ts=-k-1·Ets·Sts+k1·ESts-k-3·Ets·Its+k3·EIts+k2·EStsE˙Sts=k-1·Ets·Sts-k1·ESts-k2·EStsE˙Its=k-3·Ets·Its-k3·EIts
Figure 3 Detailed model diagram. Detailed diagram of the final model structure. […] A Michaelis–Menten kinetic model of inhibitor, substrate, and enzyme interaction was used to describe the competitive inhibition of ACE by benazeprilat. k3 and k-3 were the parameters governing ACE-benazeprilat (enzyme-inhibitor) association and dissociation, while k1 and k-1 determined the rate of ACE-angiotensin (enzyme–substrate) association and dissociation. k2 controlled the production rate of angiotensin II from angiotensin I via ACE. […]
The recorded data (yij) were imported into Monolix […] (Lixoft, France) and used to estimate population parameters (μ) and variance via the stochastic approximation expectation maximization algorithm (SAEM)[46]. […]

[4] abbreviates: single PO dose, ref 2 (b6), ref 17 King et al.

Take `CCOC(=O)[C@H](CCc1ccccc1)N[C@H]1CCc2ccccc2N(CC(=O)O)C1=O` [benazepril, Benazepril hydrochloride]: in data set [1], the Adverse effects entry is “No adverse effects were observed”; the “Serial complete blood counts and chemistry panels: hematologic or biochemical abnormalities” value is on record as “no evidence of hematologic or biochemical abnormalities”. In addition, in the data set with ACE activity (setting [4]), the “Dosage from which ACE inhibition in plasma was independent of dosage” value is recorded as ≥ 0.25 mg/kg and the “Duration of suppression of ACE activity” value is reported as “up to 24 h”. In the data set on ACE activity, the “Duration of ACE suppression” value is reported as < 12 h. For the same compound, the “Dose up to which safety has been established” value in data set [2] is given as “up to 1 mg/kg q24h”.

Regarding `O=C(O)CN1C(=O)[C@@H](N[C@@H](CCc2ccccc2)C(=O)O)CCc2ccccc21` [benazeprilat], in data set [3], the clearance was 455 mL/min. Further, the “Rate of ACE-benazeprilat dissociation in vivo, scaled (k3s), fixed effect” value at ACE is 7.0 s⁻¹.

For `CCOC(=O)[C@H](CCc1ccccc1)N[C@@H](C)C(=O)N1CCC[C@H]1C(=O)O` [enalapril], in the data set with ACE activity, the “Duration of ACE suppression” value is recorded as < 12 h.
